Laboratory results from article PMC8398766, “Do Small Molecules Activate the TrkB Receptor in the Same Manner as BDNF? Limitations of Published TrkB Low Molecular Agonists and Screening for Novel TrkB Orthosteric Agonists” (Pharmaceuticals, 2021).

What was measured:
Experiment in all cases: BioPrint Profile Panel
Assay type in all cases: binding
5-HT1A = target: T1, 5-HT1A (Homo sapiens, UniProt P08908); settings: Agonist, Receptor, read-out: % of specific inhibition
T1 construct: purchased Eurofins Discovery (Cerep) BioPrint Profile Panel
Description: (§1) The BioPrint® Profile Panel service offered by Eurofins Discovery (Poitiers, France) was chosen to perform selectivity analysis.

5-HT1B = target: T2, 5-HT1B (Rattus norvegicus, UniProt P28564); settings: Antagonist, Receptor, read-out: % of specific inhibition
T2 construct: purchased Eurofins Discovery (Cerep) BioPrint Profile Panel
Description: as §1

5-HT1D = target: T3, 5-HT1D (Rattus norvegicus, UniProt P28565); settings: Agonist, Receptor, read-out: % of specific inhibition
T3 construct: purchased Eurofins Discovery (Cerep) BioPrint Profile Panel
Description: as §1

5-HT2A = target: T4, 5-HT2A (Homo sapiens, UniProt P28223); settings: Agonist, Receptor, read-out: % of specific inhibition
T4 construct: purchased Eurofins Discovery (Cerep) BioPrint Profile Panel
Description: as §1

AT2 = target: T5, AT2 (Homo sapiens, UniProt P50052); settings: Agonist, Receptor, read-out: % of specific inhibition
T5 construct: purchased Eurofins Discovery (Cerep) BioPrint Profile Panel
Description: as §1

B2 = target: T6, B2 (Homo sapiens, UniProt P30411); settings: Agonist, Receptor, read-out: % of specific inhibition
T6 construct: purchased Eurofins Discovery (Cerep) BioPrint Profile Panel
Description: as §1

[1] = system: Ca2+ channel (verapamil site); settings: 10 μM; Antagonist (verapamil site); Ion Channel
Description: as §1

ETA = target: T7, ETA (Homo sapiens, UniProt P25101); settings: Agonist, Receptor, read-out: % of specific inhibition
T7 construct: purchased Eurofins Discovery (Cerep) BioPrint Profile Panel
Description: as §1

ETB = target: T8, ETB (Homo sapiens, UniProt P24530); settings: Agonist, Receptor, read-out: % of specific inhibition
T8 construct: purchased Eurofins Discovery (Cerep) BioPrint Profile Panel
Description: as §1

Estrogen Erα = target: T9, Estrogen Erα (Homo sapiens, UniProt P03372); settings: Agonist, Receptor, read-out: % of specific inhibition
T9 construct: purchased Eurofins Discovery (Cerep) BioPrint Profile Panel
Description: as §1

GABAB(1b) = target: T10, GABAB(1b) (Homo sapiens, UniProt Q9UBS5); settings: Antagonist, Receptor, read-out: % of specific inhibition
T10 construct: purchased Eurofins Discovery (Cerep) BioPrint Profile Panel
Description: as §1

GR = target: T11, GR (Homo sapiens, UniProt P04150); settings: Agonist, Receptor, read-out: % of specific inhibition
T11 construct: purchased Eurofins Discovery (Cerep) BioPrint Profile Panel
Description: as §1

H3 = target: T12, H3 (Homo sapiens, UniProt Q9Y5N1); settings: Agonist, Receptor, read-out: % of specific inhibition
T12 construct: purchased Eurofins Discovery (Cerep) BioPrint Profile Panel
Description: as §1

M4 = target: T13, M4 (Homo sapiens, UniProt P08173); settings: Antagonist, Receptor, read-out: % of specific inhibition
T13 construct: purchased Eurofins Discovery (Cerep) BioPrint Profile Panel
Description: as §1

MC1 = target: T14, MC1 (Mus musculus, UniProt Q01727); settings: Agonist, Receptor, read-out: % of specific inhibition
T14 construct: purchased Eurofins Discovery (Cerep) BioPrint Profile Panel
Description: as §1

MC3 = target: T15, MC3 (Homo sapiens, UniProt P41968); settings: Agonist, Receptor, read-out: % of specific inhibition
T15 construct: purchased Eurofins Discovery (Cerep) BioPrint Profile Panel
Description: as §1

MC4 = target: T16, MC4 (Homo sapiens, UniProt P32245); settings: Agonist, Receptor, read-out: % of specific inhibition
T16 construct: purchased Eurofins Discovery (Cerep) BioPrint Profile Panel
Description: as §1

MCH1 = target: T17, MCH1 (Homo sapiens, UniProt Q99705); settings: Agonist, Receptor, read-out: % of specific inhibition
T17 construct: purchased Eurofins Discovery (Cerep) BioPrint Profile Panel
Description: as §1

N neuronal α4β2 = target: T18, N neuronal α4β2 (Homo sapiens, UniProt P17787+P43681); settings: Agonist, Receptor, read-out: % of specific inhibition
T18 construct: purchased Eurofins Discovery (Cerep) BioPrint Profile Panel
Description: as §1

PPARγ = target: T19, PPARγ (Homo sapiens, UniProt P37231); settings: Agonist, Receptor, read-out: % of specific inhibition
T19 construct: purchased Eurofins Discovery (Cerep) BioPrint Profile Panel
Description: as §1

V1a = target: T20, V1a (Homo sapiens, UniProt P37288); settings: Agonist, Receptor, read-out: % of specific inhibition
T20 construct: purchased Eurofins Discovery (Cerep) BioPrint Profile Panel
Description: as §1

VPAC1 = target: T21, VPAC1 (Homo sapiens, UniProt P32241); settings: Agonist, Receptor, read-out: % of specific inhibition
T21 construct: purchased Eurofins Discovery (Cerep) BioPrint Profile Panel
Description: as §1

Y1 = target: T22, Y1 (Homo sapiens, UniProt P25929); settings: Agonist, Receptor, read-out: % of specific inhibition
T22 construct: purchased Eurofins Discovery (Cerep) BioPrint Profile Panel
Description: as §1

choline transporter = target: T23, choline transporter (Homo sapiens, UniProt Q9GZV3); settings: Antagonist, read-out: % of specific inhibition
T23 construct: purchased Eurofins Discovery (Cerep) BioPrint Profile Panel
Description: as §1

kappa = settings: 10 μM; Agonist; Receptor
Description: as §1

[2] = target: T24, norepinephrine transporter (Homo sapiens, UniProt P23975); settings: Antagonist, read-out: % of specific inhibition
T24 construct: purchased Eurofins Discovery (Cerep) BioPrint Profile Panel
Description: as §1

sigma = settings: 10 μM; Agonist; Receptor
Description: as §1

sst1 = target: T25, sst1 (Homo sapiens, UniProt P30872); settings: Agonist, Receptor, read-out: % of specific inhibition
T25 construct: purchased Eurofins Discovery (Cerep) BioPrint Profile Panel
Description: as §1

α2A = target: T26, α2A (Homo sapiens, UniProt P08913); settings: Antagonist, Receptor, read-out: % of specific inhibition
T26 construct: purchased Eurofins Discovery (Cerep) BioPrint Profile Panel
Description: as §1

α2B = target: T27, α2B (Homo sapiens, UniProt P18089); settings: Antagonist, Receptor, read-out: % of specific inhibition
T27 construct: purchased Eurofins Discovery (Cerep) BioPrint Profile Panel
Description: as §1

β1 = target: T28, β1 (Homo sapiens, UniProt P08588); settings: Agonist, Receptor, read-out: % of specific inhibition
T28 construct: purchased Eurofins Discovery (Cerep) BioPrint Profile Panel
Description: as §1

β2 = target: T29, β2 (Homo sapiens, UniProt P07550); settings: Antagonist, Receptor, read-out: % of specific inhibition
T29 construct: purchased Eurofins Discovery (Cerep) BioPrint Profile Panel
Description: as §1

T4 sequence (P28223 whole entry): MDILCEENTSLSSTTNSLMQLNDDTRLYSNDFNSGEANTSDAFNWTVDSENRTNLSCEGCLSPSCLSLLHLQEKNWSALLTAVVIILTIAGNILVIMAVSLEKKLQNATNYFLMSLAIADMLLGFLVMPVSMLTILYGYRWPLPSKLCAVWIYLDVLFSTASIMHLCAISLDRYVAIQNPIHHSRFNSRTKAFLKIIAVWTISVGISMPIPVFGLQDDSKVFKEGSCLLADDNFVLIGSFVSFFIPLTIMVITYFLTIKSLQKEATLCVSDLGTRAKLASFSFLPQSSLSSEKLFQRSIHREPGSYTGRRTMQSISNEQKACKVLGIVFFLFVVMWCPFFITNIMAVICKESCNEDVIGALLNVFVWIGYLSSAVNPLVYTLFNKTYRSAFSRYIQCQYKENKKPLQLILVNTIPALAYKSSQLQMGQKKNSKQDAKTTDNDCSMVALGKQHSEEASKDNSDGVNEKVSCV
T17 sequence (Q99705 whole entry): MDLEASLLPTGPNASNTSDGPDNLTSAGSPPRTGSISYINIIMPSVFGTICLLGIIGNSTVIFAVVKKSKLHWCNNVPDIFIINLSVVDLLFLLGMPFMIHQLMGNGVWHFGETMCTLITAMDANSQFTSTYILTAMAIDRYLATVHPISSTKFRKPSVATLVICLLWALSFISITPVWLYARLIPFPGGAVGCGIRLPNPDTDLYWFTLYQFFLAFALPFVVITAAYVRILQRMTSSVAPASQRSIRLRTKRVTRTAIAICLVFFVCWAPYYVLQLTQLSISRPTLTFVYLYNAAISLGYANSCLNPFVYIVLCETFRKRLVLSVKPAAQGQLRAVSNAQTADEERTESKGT
T28 sequence (P08588 whole entry): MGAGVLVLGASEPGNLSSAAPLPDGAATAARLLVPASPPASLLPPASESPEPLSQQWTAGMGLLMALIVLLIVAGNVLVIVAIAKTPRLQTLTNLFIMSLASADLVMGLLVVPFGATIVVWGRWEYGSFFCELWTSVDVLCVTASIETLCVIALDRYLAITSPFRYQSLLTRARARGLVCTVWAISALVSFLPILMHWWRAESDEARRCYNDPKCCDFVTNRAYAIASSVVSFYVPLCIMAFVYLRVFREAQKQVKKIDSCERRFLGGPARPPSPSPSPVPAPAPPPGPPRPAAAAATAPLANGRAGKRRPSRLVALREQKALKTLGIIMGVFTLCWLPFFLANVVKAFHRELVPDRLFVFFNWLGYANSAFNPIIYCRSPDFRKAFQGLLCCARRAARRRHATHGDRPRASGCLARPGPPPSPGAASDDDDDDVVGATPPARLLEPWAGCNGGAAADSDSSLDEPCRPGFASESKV
T29 sequence (P07550 whole entry): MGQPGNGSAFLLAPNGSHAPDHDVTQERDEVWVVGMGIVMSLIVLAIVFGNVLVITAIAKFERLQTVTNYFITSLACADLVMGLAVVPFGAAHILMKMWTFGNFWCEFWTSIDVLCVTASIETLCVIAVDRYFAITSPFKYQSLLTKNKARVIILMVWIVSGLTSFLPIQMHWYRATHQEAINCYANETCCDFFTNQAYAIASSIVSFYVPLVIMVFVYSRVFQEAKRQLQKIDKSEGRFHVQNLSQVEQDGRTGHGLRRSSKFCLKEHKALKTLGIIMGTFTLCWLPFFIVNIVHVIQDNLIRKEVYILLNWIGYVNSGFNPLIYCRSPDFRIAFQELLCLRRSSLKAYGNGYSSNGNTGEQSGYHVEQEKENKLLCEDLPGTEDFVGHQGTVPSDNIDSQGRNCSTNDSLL
T9 sequence (P03372 whole entry): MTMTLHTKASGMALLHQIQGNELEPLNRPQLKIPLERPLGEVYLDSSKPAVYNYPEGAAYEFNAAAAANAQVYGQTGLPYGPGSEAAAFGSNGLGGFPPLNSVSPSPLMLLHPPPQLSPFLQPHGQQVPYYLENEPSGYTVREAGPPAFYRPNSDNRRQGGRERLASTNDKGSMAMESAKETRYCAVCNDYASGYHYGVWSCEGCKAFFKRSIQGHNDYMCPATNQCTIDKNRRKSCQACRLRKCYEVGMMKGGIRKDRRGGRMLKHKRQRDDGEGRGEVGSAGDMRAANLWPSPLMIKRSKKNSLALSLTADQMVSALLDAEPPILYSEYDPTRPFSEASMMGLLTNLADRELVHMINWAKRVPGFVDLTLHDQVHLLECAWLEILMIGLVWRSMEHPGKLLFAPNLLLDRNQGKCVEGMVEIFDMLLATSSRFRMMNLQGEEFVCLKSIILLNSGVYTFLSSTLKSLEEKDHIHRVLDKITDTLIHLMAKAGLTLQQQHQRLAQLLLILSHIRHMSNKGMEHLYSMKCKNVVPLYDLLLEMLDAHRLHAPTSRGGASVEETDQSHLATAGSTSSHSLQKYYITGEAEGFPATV
T2 sequence (P28564 whole entry): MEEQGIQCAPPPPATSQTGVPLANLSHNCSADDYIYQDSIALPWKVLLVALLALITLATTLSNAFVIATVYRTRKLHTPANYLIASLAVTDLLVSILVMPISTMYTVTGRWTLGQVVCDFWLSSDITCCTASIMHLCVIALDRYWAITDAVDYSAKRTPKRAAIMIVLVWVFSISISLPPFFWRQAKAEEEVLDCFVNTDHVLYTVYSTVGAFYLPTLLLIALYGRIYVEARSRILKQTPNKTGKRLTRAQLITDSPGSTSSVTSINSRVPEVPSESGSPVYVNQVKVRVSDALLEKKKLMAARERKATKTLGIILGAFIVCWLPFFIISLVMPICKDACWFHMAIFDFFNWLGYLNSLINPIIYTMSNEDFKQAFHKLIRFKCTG
T12 sequence (Q9Y5N1 whole entry): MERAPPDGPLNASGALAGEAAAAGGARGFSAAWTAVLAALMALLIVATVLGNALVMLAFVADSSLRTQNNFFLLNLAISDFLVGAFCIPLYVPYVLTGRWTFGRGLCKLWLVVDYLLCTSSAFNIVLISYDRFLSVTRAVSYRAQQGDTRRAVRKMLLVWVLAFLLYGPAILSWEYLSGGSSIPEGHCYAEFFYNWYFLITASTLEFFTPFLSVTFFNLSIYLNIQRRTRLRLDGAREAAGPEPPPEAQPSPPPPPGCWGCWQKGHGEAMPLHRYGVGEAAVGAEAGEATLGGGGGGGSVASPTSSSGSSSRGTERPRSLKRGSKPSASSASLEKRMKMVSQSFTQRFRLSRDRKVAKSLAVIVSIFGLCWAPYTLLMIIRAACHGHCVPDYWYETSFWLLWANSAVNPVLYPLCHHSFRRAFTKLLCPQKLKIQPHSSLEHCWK
T14 sequence (Q01727 whole entry): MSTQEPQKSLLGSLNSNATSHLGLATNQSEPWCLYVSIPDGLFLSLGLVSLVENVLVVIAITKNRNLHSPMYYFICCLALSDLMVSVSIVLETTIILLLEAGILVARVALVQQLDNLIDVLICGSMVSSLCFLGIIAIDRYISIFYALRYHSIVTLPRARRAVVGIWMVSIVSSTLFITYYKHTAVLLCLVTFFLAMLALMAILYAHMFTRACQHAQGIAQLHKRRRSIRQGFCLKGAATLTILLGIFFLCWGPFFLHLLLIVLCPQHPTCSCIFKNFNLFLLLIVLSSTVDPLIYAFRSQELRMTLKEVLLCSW
T15 sequence (P41968 whole entry): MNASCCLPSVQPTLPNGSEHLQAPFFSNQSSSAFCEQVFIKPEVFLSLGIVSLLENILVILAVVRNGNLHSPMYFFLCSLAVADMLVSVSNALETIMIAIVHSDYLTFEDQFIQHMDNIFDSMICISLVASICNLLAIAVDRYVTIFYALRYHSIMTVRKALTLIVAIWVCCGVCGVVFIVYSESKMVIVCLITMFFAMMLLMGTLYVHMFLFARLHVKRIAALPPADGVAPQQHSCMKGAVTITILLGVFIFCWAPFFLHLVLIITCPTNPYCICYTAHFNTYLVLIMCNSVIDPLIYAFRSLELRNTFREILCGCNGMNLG
T22 sequence (P25929 whole entry): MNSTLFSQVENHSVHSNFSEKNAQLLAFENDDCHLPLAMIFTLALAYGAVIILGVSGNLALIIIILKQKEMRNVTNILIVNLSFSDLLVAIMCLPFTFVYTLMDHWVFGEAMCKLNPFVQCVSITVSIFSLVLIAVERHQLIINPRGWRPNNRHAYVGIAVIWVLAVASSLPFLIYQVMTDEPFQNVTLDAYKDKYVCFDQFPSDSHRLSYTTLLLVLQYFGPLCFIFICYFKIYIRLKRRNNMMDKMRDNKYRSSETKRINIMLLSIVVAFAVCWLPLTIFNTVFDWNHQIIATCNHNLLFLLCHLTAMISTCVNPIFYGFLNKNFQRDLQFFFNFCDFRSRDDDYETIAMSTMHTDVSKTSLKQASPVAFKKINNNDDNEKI
T20 sequence (P37288 whole entry): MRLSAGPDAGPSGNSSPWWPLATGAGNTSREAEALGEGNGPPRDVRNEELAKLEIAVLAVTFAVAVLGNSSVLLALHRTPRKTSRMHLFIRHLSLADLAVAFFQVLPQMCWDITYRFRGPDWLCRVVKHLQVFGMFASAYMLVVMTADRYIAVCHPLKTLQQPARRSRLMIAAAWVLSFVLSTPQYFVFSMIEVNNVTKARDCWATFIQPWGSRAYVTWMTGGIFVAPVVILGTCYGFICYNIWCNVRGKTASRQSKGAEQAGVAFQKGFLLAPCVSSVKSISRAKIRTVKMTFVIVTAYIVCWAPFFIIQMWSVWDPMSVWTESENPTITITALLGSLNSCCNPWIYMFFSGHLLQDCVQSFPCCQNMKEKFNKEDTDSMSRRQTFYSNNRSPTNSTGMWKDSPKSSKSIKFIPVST
T5 sequence (P50052 whole entry): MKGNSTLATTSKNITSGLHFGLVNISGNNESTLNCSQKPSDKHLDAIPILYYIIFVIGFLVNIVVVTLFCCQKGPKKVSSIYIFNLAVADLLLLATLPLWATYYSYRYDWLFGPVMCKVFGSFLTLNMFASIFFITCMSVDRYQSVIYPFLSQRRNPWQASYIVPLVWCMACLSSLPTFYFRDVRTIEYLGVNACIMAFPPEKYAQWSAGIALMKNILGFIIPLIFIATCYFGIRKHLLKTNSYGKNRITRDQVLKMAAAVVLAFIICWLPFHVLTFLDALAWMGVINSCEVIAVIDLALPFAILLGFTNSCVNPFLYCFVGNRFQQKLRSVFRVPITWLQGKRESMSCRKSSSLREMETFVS

For O=c1cc(-c2ccccc2)oc2c(O)c(O)ccc12 [7,8-DHF, 7,8-dihydroxyflavone], the inhibition at 10 µM (5-HT1A) was -26%, the inhibition at 10 µM (5-HT1B) was 3% and the inhibition at 10 µM (5-HT1D) was -8%. It also gave an inhibition at 10 µM (5-HT2A) of -4%, an inhibition at 10 µM (AT2) of 6% and an inhibition at 10 µM (B2) of -6%. For the same compound, the “% of specific inhibition” value [1] was 2%, the inhibition at 10 µM (ETA) was -10% and the inhibition at 10 µM (ETB) was -26%. The inhibition at 10 µM (Estrogen Erα) was 7%, the inhibition at 10 µM (GABAB(1b)) was -5% and the inhibition at 10 µM (GR) was -1%. It also gave an inhibition at 10 µM (H3) of -6%, an inhibition at 10 µM (M4) of -5% and an inhibition at 10 µM (MC1) of -5%. It also gave an inhibition at 10 µM (MC3) of -5%, an inhibition at 10 µM (MC4) of -5% and an inhibition at 10 µM (MCH1) of -12%. It also gave an inhibition at 10 µM (N neuronal α4β2) of 5%, an inhibition at 10 µM (PPARγ) of 21% and an inhibition at 10 µM (V1a) of -11%. It also gave an inhibition at 10 µM (VPAC1) of -13%, an inhibition at 10 µM (Y1) of 8% and an inhibition at 10 µM (choline transporter) of 5%. The “% of specific inhibition” value (kappa) was 3%, the inhibition at 10 µM [2] was -1% and the “% of specific inhibition” value (sigma) was 3%. It also gave an inhibition at 10 µM (sst1) of 2%, an inhibition at 10 µM (α2A) of -5% and an inhibition at 10 µM (α2B) of -2%. For the same compound, the inhibition at 10 µM (β1) was -5% and the inhibition at 10 µM (β2) was -5%.
